Experimental findings from article doi:10.1101/525105v1 (biorxiv, 2019) are described below.

Structures are written as SMILES.

Data set [1] is described as follows: in vitro. The settings on record: human, tzm-bl cells.
In a further data set the test system is HIV-1IIIB. Nature of the data set: microbe, parasite or virus in culture. Details: species or system LC5-RIC. Particulars: Human immunodeficiency virus 1, 48 h, read-out: IC50 HIV-1IIIB.
The target in another data set is AMV RNase H. Kind of data set: RNase H assay. It is filed as biochemical, Avian myeloblastosis virus. Particulars: conditions not printed for this enzyme.
For data set [2], the target named is HIV-1 RT (Roche colorimetric reverse transcriptase assay kit) (HIV-1 M:B_HXB2R, UniProt P04585). Kind of data set: colorimetric RT polymerase assay. The data set is classed as biochemical.
Data set [3] addresses HIV-1 integrase (XpressBio kit) (HIV-1 M:B_HXB2R, UniProt P04585). Kind of data set: HIV-1 integrase assay kit. The data set is classed as biochemical.
For another data set, the target named is T1, E. coli RNase H (Escherichia coli, UniProt P0A7Y4).
T1 sequence (P0A7Y4 1-155): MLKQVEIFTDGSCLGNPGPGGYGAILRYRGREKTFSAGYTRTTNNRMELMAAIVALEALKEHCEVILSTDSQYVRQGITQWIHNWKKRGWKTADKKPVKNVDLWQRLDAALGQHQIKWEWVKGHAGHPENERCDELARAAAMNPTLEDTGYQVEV
Kind of data set: RNase H assay. It is filed as biochemical.

The nature of data set [4]: in vitro. Particulars: human, lc5-ric cells.

What is called CC50 is the concentration giving 50% cytotoxicity. Read a low CC50 as greater toxicity to the cells. One may read the IC50 as the concentration at which inhibition is half-maximal. As for `CCN(CC)C(=O)Oc1ccc2cccnc2c1-c1cccc2cccnc12` [B#58, 7-[(Diethylamino)carbonyloxy]-8,8'-biquinolyl], the CC50 in the data set “in vitro [1]” was greater than 200 µM. The IC50 in the data set on HIV-1IIIB was greater than 200 µM.
With `CC(C)Oc1ccc2cccnc2c1-c1cccc2ccccc12` [B#24, 7-(Isopropyloxy)-8-(naphth-1-yl)quinoline], the IC50 against AMV RNase H is greater than 100 µM; in data set [2] it was greater than 100 µM; in data set [3], greater than 100 µM; on E. coli RNase H, 44.3 ± 6.4 µM; in the data set with HIV-1IIIB it was 7.6 ± 0.2 µM. For the same compound, in “in vitro [1]”, the CC50 amounted to 68.5 ± 17.1 µM. Half-maximal cytotoxicity in “in vitro [4]” (CC50 at 48 h) was put at 86.5 ± 3.7 µM.
The compound `CCN(CC)OC(=O)c1ccc2ccccc2c1-c1cccc2cccnc12` [B#60, 2-[(Diethylamino)oxycarbonyl]-1-(quinol-8-yl)naphthalene] came in with a CC50 in “in vitro [1]” of 69.3 ± 4.9 µM. In the data set with HIV-1IIIB, the IC50 was found to be 50.1 ± 3.7 µM. Also, the CC50 at 48 h in the data set “in vitro [4]” was 71.4 ± 2.8 µM.
Regarding `Cc1cc(/C=C/C#N)cc(C)c1Nc1ccnc(Nc2ccc(C#N)cc2)n1` [rilpivirine, reference compound], the IC50 on AMV RNase H is greater than 10 µM; in data set [2], roughly 0.001 µM; against E. coli RNase H, greater than 10 µM.
For `CC(C)Oc1ccc2ccccc2c1-c1cccc2cccnc12` [B#59, 2-(Isopropyloxy)-1-(quinol-8-yl)naphthalene], the CC50 in the data set “in vitro [1]” is greater than 100 µM. The IC50 with HIV-1IIIB was found to be 39.5 ± 1.7 µM. In “in vitro [4]”, this compound gave a CC50 at 48 h of 144 ± 7.7 µM.
On to `CC(C)Oc1ccc2cccnc2c1-c1cccc2cccnc12` [B#57, 7-(Isopropyloxy)-8,8′-biquinolyl], for which the IC50 against AMV RNase H is greater than 100 µM; in data set [2], greater than 100 µM; in data set [3], greater than 100 µM; at E. coli RNase H it was greater than 100 µM; in the data set with HIV-1IIIB, greater than 200 µM. Also, the CC50 in the data set “in vitro [1]” was greater than 200 µM. In addition, the CC50 at 48 h in the data set “in vitro [4]” was greater than 200 µM.
